Test results published in PMC8130605 (RSC Medicinal Chemistry, 2021).

Legend:
THP1 cells = assay: THP1 host cell cytotoxicity; type: cell-based
[1] = Mouse pharmacokinetic study; type: in vivo; settings: after oral dosing 50 mg kg^−1

compound in the plasma after 24 hours [1] | Compound | background cell cytotoxicity (in words) (THP1 cells)
 | CC(C)(C)Nc1c(-c2ccccn2)nc2c(OCc3ccccc3)cccn12 [Compound 2] | no background cell cytotoxicity
no compound observed | COc1ccn2c(Nc3cc(F)cc(F)c3)c(-c3ccccn3)nc2c1 [Compound 23] | 
 | Cc1ccc2nc(-c3ccc(N(C)C)cc3)c(NC3CCCCC3)n2c1 [Compound 8] | no background cell cytotoxicity
